Experimental findings from ChEMBL document CHEMBL4725304, “Synthesis and evaluations of selective COX-2 inhibitory effects: Benzo[d]thiazol analogs” (Bioorg Med Chem Lett, 2020) are described below.

The test system of assay [1] is Mus musculus. The assay is described as follows: Antiinflammatory activity in mouse assessed as reduction in xylene-induced ear edema at 100 mg/kg, ip administered after prior to xylene stimulation and measured after 1 hr relative to control. It counts as functional.
Assay [2] deals with Mus musculus. The assay is described as follows: Antiinflammatory activity in mouse assessed as xylene-induced ear edema at 100 mg/kg, ip administered prior to xylene stimulation and measured after 1 hr (reference value: 2.05 +/- 0.40 mg). It counts as functional.
Assay [3] relates to Mus musculus. The assay is described as follows: Analgesic activity in mouse assessed as reduction in acetic acid-induced abdominal writhing at 100 mg/kg, ip relative to control. The class given is functional. (In general: Writhing tests count abdominal constrictions after an irritant is injected.)
For assay [4], the target named is Prostaglandin G/H synthase 1 (Homo sapiens, UniProt P23219). The assay is described as follows: Inhibition of COX1 (unknown origin). It counts as single protein.
The target of assay [5] is T1, Prostaglandin G/H synthase 2 (Homo sapiens, UniProt P35354).
T1 sequence (P35354 whole entry): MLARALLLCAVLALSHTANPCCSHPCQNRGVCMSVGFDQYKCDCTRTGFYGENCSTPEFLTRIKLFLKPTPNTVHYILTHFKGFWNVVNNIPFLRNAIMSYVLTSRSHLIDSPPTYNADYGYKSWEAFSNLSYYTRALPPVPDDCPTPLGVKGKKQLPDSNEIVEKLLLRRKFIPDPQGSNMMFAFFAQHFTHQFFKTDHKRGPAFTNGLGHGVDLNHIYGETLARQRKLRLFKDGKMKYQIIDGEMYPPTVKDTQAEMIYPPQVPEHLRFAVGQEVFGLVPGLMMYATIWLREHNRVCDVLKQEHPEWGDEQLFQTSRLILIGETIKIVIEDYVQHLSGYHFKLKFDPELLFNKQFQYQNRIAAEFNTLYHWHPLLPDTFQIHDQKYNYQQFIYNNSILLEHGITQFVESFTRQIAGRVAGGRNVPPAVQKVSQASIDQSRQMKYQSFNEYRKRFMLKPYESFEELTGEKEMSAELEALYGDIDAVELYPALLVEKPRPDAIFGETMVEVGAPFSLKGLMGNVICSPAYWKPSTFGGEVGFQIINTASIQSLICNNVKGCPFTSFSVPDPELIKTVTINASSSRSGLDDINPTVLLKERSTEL
In words: Inhibition of COX2 (unknown origin).

The species named for assay [6] is Homo sapiens. The assay is described as follows: Selectivity index, ratio of IC50 for COX1 (unknown origin) to IC50 for COX2 (unknown origin).
The test system of assay [7] is Rattus norvegicus. In words: Antiinflammatory activity against carrageenan-induced paw edema in rat assessed as inhibition of paw edema at 100 mg/kg, ip administered at 1 hr prior to carrageenan challenge and measured after 4 hrs by electronic-onkographic analysis. It counts as functional. To be noted: time 5 hrs.

SMILES strings stand for the structures. Activity calls are given as the source filed them. The calls are words filed in the database; no cut-off is given here.

Chain of Prostaglandin G/H synthase 1 (P23219 whole entry): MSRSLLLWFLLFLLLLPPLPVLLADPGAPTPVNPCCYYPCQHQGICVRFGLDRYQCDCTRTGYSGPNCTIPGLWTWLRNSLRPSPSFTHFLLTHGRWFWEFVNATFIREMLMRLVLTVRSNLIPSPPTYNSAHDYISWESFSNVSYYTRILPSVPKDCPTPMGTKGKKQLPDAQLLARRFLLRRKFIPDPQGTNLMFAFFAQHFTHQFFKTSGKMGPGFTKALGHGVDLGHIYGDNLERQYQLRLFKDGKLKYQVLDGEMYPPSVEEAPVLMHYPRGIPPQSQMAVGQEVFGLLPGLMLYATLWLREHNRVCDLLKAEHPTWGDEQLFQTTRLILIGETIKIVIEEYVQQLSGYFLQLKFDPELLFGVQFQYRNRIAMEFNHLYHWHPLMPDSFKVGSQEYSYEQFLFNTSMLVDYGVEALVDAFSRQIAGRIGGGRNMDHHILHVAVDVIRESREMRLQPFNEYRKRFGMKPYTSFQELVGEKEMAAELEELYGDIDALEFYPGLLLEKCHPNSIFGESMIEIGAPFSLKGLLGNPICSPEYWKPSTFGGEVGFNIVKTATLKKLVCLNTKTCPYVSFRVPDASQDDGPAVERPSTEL

As to `Fc1ccccc1COc1nc2ccccc2s1`, the inhibition in vivo (commonly the drop in the measured response relative to a control, in per cent) at 100 mg/kg in assay [1] was found to be 74.6%; in assay [3], 51.9%. Further, in assay [2], the Activity is listed as 0.52 mg.

For `Clc1ccc(COc2nc3ccccc3s2)cc1`, the values for the inhibition in vivo at 100 mg/kg in assay [1] and in assay [3] were 82.9% and 51.9%, respectively. The Activity in assay [2] came to 0.35 mg. The 50% inhibitory concentration (IC50) (usually the point on the concentration scale where inhibition reaches its midpoint) is 5550 nM in assay [4] and 770 nM in assay [5]. In addition, the Ratio IC50 in assay [6] came out at 7.2.

As for `c1ccc(COc2nc3ccccc3s2)cc1`, the results for the inhibition in vivo at 100 mg/kg in assay [1] and in assay [3] were 68.8% and 51.9%, respectively. In addition, the Activity in assay [2] was 0.64 mg.

For the compound `O=C(c1ccc([N+](=O)[O-])cc1)c1nc2ccc(F)c(Nc3ccccc3[N+](=O)[O-])c2s1`, the inhibition in vivo at 100 mg/kg in assay [7] stood at 78%.

Turning to `Clc1ccccc1COc1nc2ccccc2s1`, the inhibition in vivo at 100 mg/kg in assay [1] was found to be 14.6%. The Activity in assay [2] is given as 1.75 mg. The inhibition entry in assay [3] is “inactive”.

On to `Fc1ccc(COc2nc3ccccc3s2)cc1`, for which the figures for the inhibition in vivo at 100 mg/kg in assay [1] and in assay [3] were 90.7% and 51.9%, respectively. In addition, in assay [2], the Activity is listed as 0.19 mg. The IC50 in assay [4] amounted to 6200 nM; in assay [5] it was 370 nM. The Ratio IC50 in assay [6] was 16.8.

Regarding `Brc1ccc(OCCOc2nc3ccccc3s2)cc1`, the inhibition in vivo at 100 mg/kg in assay [1] came to 94.6%; in assay [3], 68.6%. For the same compound, in assay [2], the Activity came to 0.11 mg. Also, the IC50 came to 5320 nM in assay [4] and 500 nM in assay [5]. In addition, in assay [6], the Ratio IC50 is 10.6.

As to `O=[N+]([O-])c1ccc(COc2nc3ccccc3s2)cc1`, the inhibition in vivo at 100 mg/kg in assay [1] was 4.39%; in assay [3], 97%. Besides, the Activity in assay [2] was found to be 1.96 mg.

`COc1ccc2c(c1)c(CC(=O)O)c(C)n2C(=O)c1ccc(Cl)cc1` [INDOMETHACIN]: the inhibition in vivo at 100 mg/kg in assay [1] amounted to 82.4%. Besides, the Activity in assay [2] was 0.36 mg.

Turning to `COc1cc(COc2nc3ccccc3s2)cc(OC)c1`, the inhibition in vivo at 100 mg/kg was determined as 44.4% in assay [1] and 51.9% in assay [3]. The Activity in assay [2] came to 1.14 mg.

As to `N#Cc1ccc(COc2nc3ccccc3s2)cc1`, the inhibition in vivo at 100 mg/kg in assay [1] was determined as 12.7%. Besides, the Activity in assay [2] is 1.79 mg. In addition, in assay [3], the inhibition result was “inactive”.

Regarding `Brc1cccc(COc2nc3ccccc3s2)c1`, the inhibition in vivo at 100 mg/kg in assay [1] was 77.6%; in assay [3], 51.9%. Further, in assay [2], the Activity came to 0.46 mg.

Take `Fc1ccc(OCCOc2nc3ccccc3s2)cc1`: the inhibition in vivo at 100 mg/kg in assay [1] stood at 72.7%; in assay [3], 99.9%. Also, the Activity in assay [2] was 0.56 mg.

In the case of `Brc1ccc(COc2nc3ccccc3s2)cc1`, the inhibition in vivo at 100 mg/kg amounted to 78% in assay [1] and 51.9% in assay [3]. Further, the Activity in assay [2] is recorded as 0.45 mg.

As for `Cc1ccc(COc2nc3ccccc3s2)cc1`, the inhibition in vivo at 100 mg/kg in assay [1] is 1.95%. Further, the Activity in assay [2] came out at 2.01 mg. Moreover, the inhibition entry in assay [3] was “inactive”.

In the case of `Brc1ccccc1COc1nc2ccccc2s1`, the inhibition in vivo at 100 mg/kg in assay [1] came out at 75.6%; in assay [3], 51.9%. The Activity in assay [2] turned out to be 0.5 mg.

Turning to `Clc1ccc(OCCOc2nc3ccccc3s2)cc1`, the inhibition in vivo at 100 mg/kg worked out at 66.3% in assay [1] and 68.6% in assay [3]. The Activity in assay [2] is 0.69 mg.

Regarding `c1ccc(OCCOc2nc3ccccc3s2)cc1`, in assay [1], the inhibition in vivo at 100 mg/kg was found to be 7.31%. For the same compound, the Activity in assay [2] amounted to 1.9 mg. Also, the inhibition result in assay [3] is “inactive”.

On to `Clc1cccc(COc2nc3ccccc3s2)c1`, for which the values for the inhibition in vivo at 100 mg/kg in assay [1] and in assay [3] were 80% and 51.9%, respectively. The Activity in assay [2] turned out to be 0.41 mg.

`FC(F)(F)c1ccccc1COc1nc2ccccc2s1`: in assay [1], the inhibition in vivo at 100 mg/kg worked out at 9.75%. Moreover, the Activity in assay [2] amounted to 2.03 mg. Also, the inhibition entry in assay [3] is “inactive”.

In the case of `Brc1ccc(OCCOc2nc3ccccc3s2)c(Br)c1`, the inhibition in vivo at 100 mg/kg in assay [1] was 87.3%; in assay [3], 68.6%. The Activity in assay [2] is 0.26 mg. Also, the IC50 in assay [4] came to 5080 nM; in assay [5], 360 nM. Further, in assay [6], the Ratio IC50 amounted to 14.1.

Take `COc1ccc(COc2nc3ccccc3s2)cc1`: the inhibition in vivo at 100 mg/kg in assay [1] is 2.43%. For the same compound, the Activity in assay [2] was 2 mg. Besides, the inhibition result in assay [3] is “inactive”.

As to `FC(F)(F)c1ccc(COc2nc3ccccc3s2)cc1`, the values for the inhibition in vivo at 100 mg/kg in assay [1] and in assay [3] were 12.2% and 99.6%, respectively. The Activity in assay [2] was 1.8 mg.

With `Clc1ccc(OCCOc2nc3ccccc3s2)c(Cl)c1`, the inhibition in vivo at 100 mg/kg in assay [1] came out at 85.4%; in assay [3] it was 68.6%. In addition, the Activity in assay [2] stood at 0.3 mg. Moreover, the half-maximal inhibitory concentration (IC50) was 4280 nM in assay [4] and 410 nM in assay [5]. Further, in assay [6], the Ratio IC50 stood at 10.4.

In the case of `Cc1cc(C)cc(COc2nc3ccccc3s2)c1`, the inhibition in vivo at 100 mg/kg was found to be 0.5% in assay [1] and 51.9% in assay [3]. Further, in assay [2], the Activity was found to be 2.04 mg.

As for `Fc1cccc(COc2nc3ccccc3s2)c1`, the inhibition in vivo at 100 mg/kg in assay [1] was found to be 86.8%; in assay [3], 51.9%. In addition, the Activity in assay [2] amounted to 0.27 mg. Besides, the results for the concentration for half-maximal inhibition (IC50) in assay [4] and in assay [5] were 5220 nM and 280 nM, respectively. Moreover, the Ratio IC50 in assay [6] came out at 18.6.

Take `Fc1ccc(OCCOc2nc3ccccc3s2)c(F)c1`: the inhibition in vivo at 100 mg/kg in assay [1] was determined as 56.1%; in assay [3], 68.6%. The Activity in assay [2] is reported as 0.9 mg.
